Laboratory results as given in ChEMBL document CHEMBL5252530, “Biological importance of structurally diversified chromenes” (Eur J Med Chem, 2016).
pIC50, pKi: −log10 of the molar value. Values after ≈ are worked out from the molar mass of the structure shown.

Legend:
[1] = Inhibition of ECE (unknown origin); set-up: species or system Homo sapiens
[2] = tested on: Leishmania major; test: Antileishmanial activity against Leishmania major promastigotes assessed as inhibition of [3H]thymidine uptake preincubated for 2 hrs followed by addition of [3H]thymidine measured after 18 hrs by scintillation counting; type: functional, organism-based
[3] = tested on: Plasmodium falciparum; test: Antimalarial activity against chloroquine-susceptible Plasmodium falciparum 3D7; type: functional, organism-based
[4] = tested on: Plasmodium falciparum; test: Antimalarial activity against chloroquine-resistant Plasmodium falciparum Dd2; type: functional, organism-based
[5] = target: Acetylcholinesterase (Homo sapiens, UniProt P22303); test: Inhibition of recombinant human AChE assessed as hydrolysis of acetylthiocholine by Ellman's method
Sequence of Acetylcholinesterase (Homo sapiens, UniProt P22303) (P22303 whole entry): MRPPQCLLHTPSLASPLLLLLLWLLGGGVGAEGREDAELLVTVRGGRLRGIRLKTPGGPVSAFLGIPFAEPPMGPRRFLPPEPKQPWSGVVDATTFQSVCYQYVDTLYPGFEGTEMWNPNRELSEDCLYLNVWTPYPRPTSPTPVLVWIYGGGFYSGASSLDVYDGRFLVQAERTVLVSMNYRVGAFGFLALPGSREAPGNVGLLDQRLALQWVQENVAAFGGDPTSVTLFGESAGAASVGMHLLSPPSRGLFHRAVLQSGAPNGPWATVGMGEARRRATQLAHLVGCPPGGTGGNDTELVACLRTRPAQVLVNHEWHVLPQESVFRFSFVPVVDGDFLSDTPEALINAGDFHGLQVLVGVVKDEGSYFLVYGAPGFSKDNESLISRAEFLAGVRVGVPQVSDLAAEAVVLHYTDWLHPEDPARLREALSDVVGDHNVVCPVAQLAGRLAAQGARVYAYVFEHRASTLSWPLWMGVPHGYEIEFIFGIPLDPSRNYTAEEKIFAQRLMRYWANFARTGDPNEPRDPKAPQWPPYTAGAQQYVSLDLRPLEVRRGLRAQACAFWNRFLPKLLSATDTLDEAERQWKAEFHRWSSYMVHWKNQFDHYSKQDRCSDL

[6] = target: Cannabinoid receptor 2 (Homo sapiens, UniProt P34972); test: Binding affinity to CB2 (unknown origin)
Sequence of Cannabinoid receptor 2 (P34972 whole entry): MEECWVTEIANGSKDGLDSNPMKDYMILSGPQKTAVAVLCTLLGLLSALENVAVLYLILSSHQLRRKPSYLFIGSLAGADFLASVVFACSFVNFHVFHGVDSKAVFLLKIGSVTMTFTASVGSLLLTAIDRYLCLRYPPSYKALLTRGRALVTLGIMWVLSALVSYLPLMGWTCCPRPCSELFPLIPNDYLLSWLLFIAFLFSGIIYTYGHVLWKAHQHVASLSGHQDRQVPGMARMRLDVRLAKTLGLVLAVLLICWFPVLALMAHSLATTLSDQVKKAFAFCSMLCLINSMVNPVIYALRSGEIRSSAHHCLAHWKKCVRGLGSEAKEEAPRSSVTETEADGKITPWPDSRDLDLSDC

[7] = target: 5-hydroxytryptamine receptor 1B (Rattus norvegicus, UniProt P28564); test: Binding affinity to rat 5-HT1B
Sequence of 5-hydroxytryptamine receptor 1B (P28564 whole entry): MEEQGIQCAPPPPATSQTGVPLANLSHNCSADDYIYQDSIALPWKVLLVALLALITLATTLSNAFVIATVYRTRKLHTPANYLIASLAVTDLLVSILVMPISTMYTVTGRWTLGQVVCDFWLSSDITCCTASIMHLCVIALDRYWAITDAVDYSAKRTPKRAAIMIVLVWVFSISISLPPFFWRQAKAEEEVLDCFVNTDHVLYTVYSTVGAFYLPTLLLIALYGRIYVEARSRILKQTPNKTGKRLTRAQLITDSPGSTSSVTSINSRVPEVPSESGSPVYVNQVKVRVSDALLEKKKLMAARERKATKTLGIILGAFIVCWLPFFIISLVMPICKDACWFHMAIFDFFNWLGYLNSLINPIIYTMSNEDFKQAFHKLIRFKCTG

[8] = Binding affinity to bovine 5-HT1B; set-up: species or system Bos taurus
[9] = Selectivity ratio of Ki for bovine 5-HT1B to rat 5-HT1B
[10] = target: Chymotrypsinogen A (Bos taurus) (UniProt P00766); test: Inactivation of bovine alpha-chymotrypsin assessed as Ki/KI ratio at pH 7.5
[11] = tested on: Selenastrum capricornutum; test: Algicidal activity against Selenastrum capricornutum; type: functional, organism-based
[12] = tested on: Planktothrix perornata; test: Algicidal activity against Planktothrix perornata; type: functional, organism-based
[13] = tested on: Rattus norvegicus; test: Antiinflammatory activity in rat assessed as inhibition of the carrageenan-induced right hind paw edema at 0.1 mmol/kg; type: functional; set-up: scale not given: the % may be the effect or the level left
[14] = tested on: KB; test: Cytotoxicity against human KB cells assessed as inhibition of cell growth incubated for 72 hrs by neutral red dye based colorimetric assay; type: functional
[15] = Cytotoxicity against human Lu1 cells; type: functional; details: read-out: ED50 (the source's name)
[16] = tested on: Col2; test: Cytotoxicity against human Col2 cells; type: functional; details: read-out: ED50 (the source's name)
[17] = tested on: LNCaP; test: Cytotoxicity against human LNCaP cells; type: functional; details: read-out: ED50 (the source's name)
[18] = tested on: KB; test: Cytotoxicity against human KB cells; type: functional; details: read-out: ED50 (the source's name)
[19] = target: T1, Acetylcholinesterase (Electrophorus electricus, UniProt O42275); test: Inhibition of electric eel AChE (type VI-S) using acetylthiocholine iodide as substrate preincubated for 15 mins followed by substrate addition by Ellman's method
T1 sequence (O42275 whole entry): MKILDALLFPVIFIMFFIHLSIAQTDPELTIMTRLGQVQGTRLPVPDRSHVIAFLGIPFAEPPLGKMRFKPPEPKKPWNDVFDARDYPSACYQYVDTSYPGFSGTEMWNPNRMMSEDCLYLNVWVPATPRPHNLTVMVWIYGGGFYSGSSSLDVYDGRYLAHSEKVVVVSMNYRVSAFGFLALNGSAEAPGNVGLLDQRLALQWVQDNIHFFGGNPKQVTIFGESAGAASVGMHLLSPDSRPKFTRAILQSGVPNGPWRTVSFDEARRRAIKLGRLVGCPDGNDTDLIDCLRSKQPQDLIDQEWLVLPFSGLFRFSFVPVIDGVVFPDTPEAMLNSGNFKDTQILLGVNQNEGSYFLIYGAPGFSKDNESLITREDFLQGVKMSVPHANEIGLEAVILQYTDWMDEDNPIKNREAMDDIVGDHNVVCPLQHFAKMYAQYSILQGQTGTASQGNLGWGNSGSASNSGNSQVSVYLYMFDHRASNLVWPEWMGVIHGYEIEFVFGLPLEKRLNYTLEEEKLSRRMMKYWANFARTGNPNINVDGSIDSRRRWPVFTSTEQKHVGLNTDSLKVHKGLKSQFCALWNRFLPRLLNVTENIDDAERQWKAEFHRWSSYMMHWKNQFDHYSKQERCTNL

[20] = target: T1, Acetylcholinesterase; test: Competitive inhibition of electric eel acetyl cholinesterase measured for 3 mins by Ellman's method
[21] = target: Chymotrypsinogen A (Bos taurus) (UniProt P00766); test: Inactivation of bovine alpha-chymotrypsin assessed as Ki/KI ratio
[22] = Therapeutic index, ratio of IC50 for human H9 cells to EC50 for HIV-1 3B in human H9 cells; type: toxicity, cell-based; details: read-out: Ratio IC50/EC50
[23] = tested on: Human immunodeficiency virus 1; test: Antiviral activity against HIV-1 3B in human H9 cells incubated for 4 days by ELISA; type: functional, organism-based; details: Human immunodeficiency virus 1, 3B, H9, 96 h

CC1(C)C=Cc2c(ccc3c2O[C@H](O)[C@H]2c4ccc(O)cc4O[C@@H]32)O1
pIC50 [1]: 5.05

Cc1cccc2oc(=O)c3c(c12)O[C@@H](C)[C@@]3(C)CC(=O)C1OC1(C)C (stereo partly specified)
pIC50 [2]: 4.87 | pIC50 [3]: < 4.30 | pIC50 [4]: < 4.30

CCN(Cc1ccccc1)Cc1ccc(-c2cc3cc(OC)c(OC)cc3oc2=O)cc1
pKi [5]: 7.98

CCCCCCC(C)(C)c1cc(O)c2c(c1)oc(=O)c1ccc(OC)cc12
pKi [6]: 8.17

C1=C(CN2CCOCC2)COc2c1cccc2OCC1COCCN1 (stereo unspecified)
pKi [7]: 7.33 | pKi [8]: 6.20 | Ratio Ki [9]: 13

O=C(Oc1cccc(Cl)c1)c1cc2cc(CCl)ccc2oc1=O
Ratio [10]: 7.6 10^5/M/s

CC(C)CC(=O)N(C)CCc1ccc2c(c1)C=CC(C)(C)O2
Activity [11]: 100 µM | pIC50 ([11]; Selenastrum capricornutum): 4.90 | Activity [12]: 10 µM | pIC50 ([12]; Planktothrix perornata): 5.64

CCOC(=O)C1(CC)Oc2ccc3c(C)cc(=O)oc3c2O1 (stereo unspecified)
Activity [13]: 55%

COc1cc2cc(-c3ccc(CN(CCO)Cc4ccccc4)cc3)c(=O)oc2cc1OC
pKi [5]: 7.98

C=C(C)C(O)Cc1c(O)c(C(=O)C(C)C)c(O)c2c(-c3ccccc3)cc(=O)oc12 (stereo unspecified)
IC50 [14]: 4 µg/mL (≈ 9.79 µM)

C=C(C)C(O)Cc1c(O)c(C(=O)C(C)CC)c(O)c2c(-c3ccccc3)cc(=O)oc12 (stereo unspecified)
IC50 [14]: 4 µg/mL (≈ 9.47 µM)

CCC(C)c1cc(=O)oc2c(C(=O)CC(C)CO)c(O)c(CC=C(C)C)c(O)c12 (stereo unspecified)
EC50 [15]: 11.1 µg/mL (≈ 27.6 µM) | EC50 [16]: 11.1 µg/mL (≈ 27.6 µM) | EC50 [17]: 11.1 µg/mL (≈ 27.6 µM) | EC50 [18]: 11.1 µg/mL (≈ 27.6 µM)

Cc1cccc2oc(=O)c3c(c12)O[C@H](C)[C@@]3(C)CC(=O)C1OC1(C)C (stereo partly specified)
pIC50 [3]: < 4.30 | pIC50 [4]: < 4.30

CC(C)=CCCC1(C)C=Cc2c(cc(O)c3c(=O)c4cccc(O)c4oc23)O1 (stereo unspecified)
pIC50 [19]: 5.07 | pKi [19]: 5.46 | pKi [20]: 5.72

CCCCCCC(C)(C)c1cc(O)c2c(c1)oc(=O)c1ccc(C)cc12
pKi [6]: 8.51

C=C(C)C(O)Cc1c(O)c(C(=O)C(C)CC)c(O)c2c(CCC)cc(=O)oc12 (stereo unspecified)
IC50 [14]: 4 µg/mL (≈ 10.3 µM)

CC(C)CC(=O)c1c(O)cc(O)c2c(-c3ccccc3)cc(=O)oc12 [ISODISPAR B]
IC50 [14]: 4 µg/mL (≈ 11.8 µM)

O=C(Oc1cccc(Cl)n1)c1cc2cc(CCl)ccc2oc1=O
Ratio [21]: 1.1 10^5/M/s

COc1cc2cc(-c3ccc(CN(C)Cc4ccccc4)cc3)c(=O)oc2cc1OC
pKi [5]: 7.35

COc1cc2cc(-c3ccc(C[N+](C)(C)Cc4ccccc4)cc3)c(=O)oc2cc1OC
pKi [5]: 7.98

Cc1cc(=O)oc2c3c(ccc12)OC(C)(c1ccccc1)O3 (stereo unspecified)
Activity [13]: 55%

CC(C)=CCC/C(C)=C/CC[C@@]1(C)C=Cc2c(cc(C)c(C(=O)O)c2O)O1 [DAURICHROMENIC ACID]
selectivity ratio [22]: 3.71 | EC50 [23]: 5.67 µg/mL (≈ 15.3 µM)

COc1ccc2c(c1)c(CC(=O)O)c(C)n2C(=O)c1ccc(Cl)cc1 [INDOMETHACIN]
Activity [13]: 47%

CC(C)=CCc1c(O)c(C(=O)CC(C)CO)c2oc(=O)cc(-c3ccccc3)c2c1O (stereo unspecified)
EC50 [15]: 11.1 µg/mL (≈ 26.3 µM) | EC50 [16]: 11.1 µg/mL (≈ 26.3 µM) | EC50 [17]: 11.1 µg/mL (≈ 26.3 µM) | EC50 [18]: 11.1 µg/mL (≈ 26.3 µM)
